Experimental findings from ChEMBL document CHEMBL5244218, “Quinolone derivatives and their activities against methicillin-resistant Staphylococcus aureus (MRSA)” (Eur J Med Chem, 2018) are described below.

In brackets after ≈: the same amount, converted by molar mass.

Data set [1] has as its system Staphylococcus aureus. Description: Antibacterial activity against methicillin-resistant Staphylococcus aureus infected in mouse model assessed as reduction in log10CFU in lungs (reference value: 8.47 log10CFU). The class given is functional.
Data set [2] relates to Staphylococcus aureus. Description: Antimicrobial activity against methicillin-resistant Staphylococcus aureus MR101 Mu50 measured after 18 hrs by microplate dilution method. The class given is functional.
For data set [3], the system named is Staphylococcus aureus. Put plainly: Antibacterial activity against methicillin-resistant Staphylococcus aureus infected in mouse model assessed as increase in survival rate relative to control. The class given is functional.
For data set [4], the system named is Staphylococcus aureus. Description: Antimicrobial activity against methicillin-resistant Staphylococcus aureus by agar dilution method. The class given is functional. For orientation: Agar dilution tests growth on a series of plates holding different concentrations.
Data set [5] deals with Staphylococcus aureus. Put plainly: Antimicrobial activity against methicillin-resistant Staphylococcus aureus assessed as inhibition of microbial growth at 15.63 ug/ml relative to control. The class given is functional. Set-up: scale not given: the % may be the effect or the level left. The conditions noted are these: dose 15.63 µg/ml.
Data set [6] is described as follows: Permeability coefficient of compound. The class given is ADME. The note with it: not told; read-out: Kp (converted).
Data set [7] is described as follows: Cytotoxicity against human HEK293 cells incubated for 72 hrs by MTT assay. The class given is toxicity, cell-based. A general note: Tetrazolium dyes change colour on reduction, which living cells bring about.
The subject of data set [8] is Staphylococcus aureus. Put plainly: Antibacterial activity against methicillin-resistant Staphylococcus aureus isolates by two fold dilution method. The class given is functional.
Data set [9] concerns Staphylococcus aureus. Put plainly: Antimicrobial activity against methicillin-resistant Staphylococcus aureus assessed as inhibition of microbial growth. The class given is functional.
The test system of data set [10] is Staphylococcus aureus. Description: Potency index, ratio of ciprofloxacin MIC to test compound MIC for antimicrobial activity against methicillin-resistant Staphylococcus aureus. The class given is functional.
Data set [11] has as its system Staphylococcus aureus. Description: Potency index, ratio of ciprofloxacin MIC to test compound MIC for antimicrobial activity against methicillin-resistant Staphylococcus aureus clinical isolate 1. The class given is functional.
For data set [12], the system named is Staphylococcus aureus. Description: Potency index, ratio of ciprofloxacin MIC to test compound MIC for antimicrobial activity against methicillin-resistant Staphylococcus aureus clinical isolate 2. The class given is functional.
In data set [13] the test system is Staphylococcus aureus. Put plainly: Potency index, ratio of norfloxacin MIC to test compound MIC for antimicrobial activity against methicillin-resistant Staphylococcus aureus clinical isolate 2. The class given is functional.
In data set [14] the test system is Staphylococcus aureus. Description: Antimicrobial activity against methicillin-resistant Staphylococcus aureus clinical isolate 2 measured after 18 hrs by agar dilution method. The class given is functional.
Data set [15] concerns Staphylococcus aureus. Put plainly: Antimicrobial activity against methicillin-resistant Staphylococcus aureus clinical isolate 1 measured after 18 hrs by agar dilution method. The class given is functional.
Data set [16] deals with Staphylococcus aureus. Description: Potency index, ratio of norfloxacin MIC to test compound MIC for antimicrobial activity against methicillin-resistant Staphylococcus aureus clinical isolate 1. The class given is functional.
Data set [17] has as its system Staphylococcus aureus. Put plainly: Antimicrobial activity against methicillin-resistant Staphylococcus aureus. The class given is functional, organism-based.
Data set [18] is described as follows: Cytotoxicity against African green monkey Vero cells. The class given is toxicity, cell-based. The conditions noted are these: chlorocebus sabaeus.
Data set [19] has as its system Staphylococcus aureus. Put plainly: Antimicrobial activity against methicillin-resistant Staphylococcus aureus isolates by agar dilution method. The class given is functional.
In data set [20] the test system is Staphylococcus aureus. Put plainly: Antimicrobial activity against methicillin-resistant Staphylococcus aureus incubated for 18 hrs by Alamar blue staining based analysis. The class given is functional. Background: Alamar Blue is a resazurin reagent that responds to reducing activity.
For data set [21], the system named is Staphylococcus aureus. Put plainly: Antimicrobial activity against methicillin-resistant Staphylococcus aureus incubated for 18 hrs by Agar dilution method. The class given is functional.
The subject of data set [22] is Staphylococcus aureus. Put plainly: Antimicrobial activity against fluoroquinolone-resistant Staphylococcus aureus assessed as inhibition of bacterial growth at 0.5 ug/ml relative to control. The class given is functional. Also noted: scale not given: the % may be the effect or the level left. The conditions noted are these: dose 0.5 µg/ml.
Data set [23] deals with Staphylococcus aureus. Put plainly: Antimicrobial activity against methicillin-resistant Staphylococcus aureus assessed as inhibition of bacterial growth at 0.5 ug/ml relative to control. The class given is functional. Set-up: scale not given: the % may be the effect or the level left. The note with it: dose 0.5 µg/ml.
Data set [24] concerns Staphylococcus aureus. Put plainly: Antibacterial activity against methicillin-resistant Staphylococcus aureus. The class given is functional.
Data set [25] concerns Staphylococcus aureus. Description: Bactericidal activity against methicillin-resistant Staphylococcus aureus assessed as inhibition of microbial growth. The class given is functional.
Data set [26] deals with Staphylococcus aureus. Description: Antimicrobial activity against methicillin-resistant Staphylococcus aureus Mi300 by microbroth dilution method. The class given is functional.
The subject of data set [27] is Staphylococcus aureus. Put plainly: Antimicrobial activity against methicillin-resistant Staphylococcus aureus Mi339 by microbroth dilution method. The class given is functional.
Data set [28] concerns Staphylococcus aureus. Description: Potency index, ratio of norfloxacin MIC to test compound MIC for antimicrobial activity against methicillin-resistant Staphylococcus aureus. The class given is functional.

In the case of `Cc1c(N2C[C@@H](F)[C@@H](C3(C)CC3)C2)c(F)c(N)c2c(=O)c(C(=O)O)cn([C@@H]3C[C@@H]3F)c12`, the values for the Activity in the data set on Staphylococcus aureus [1] and in the data set with Staphylococcus aureus [3] were 6.33 log10CFU and 90%, respectively. Also, in the data set with Staphylococcus aureus [2], 0.125 µg/mL (≈ 0.287 µM) was the least that counted as inhibitory (MIC).
On to `CCO/N=C1\CCN(c2c(F)cc3c(=O)c(C(=O)O)cn(C4CC4)c3c2F)CC1(C)CNC` (stereo unspecified), for which, in the data set with Staphylococcus aureus [4], the MIC (commonly the lowest concentration found to suppress growth) stood at 64 µg/mL (≈ 138 µM).
In the case of `CCOC(=O)c1cn(C2CC2)c2cc(N3CCNCC3)ccc2c1=O`, the Activity in the data set on Staphylococcus aureus [5] is 80%. The Papp in data set [6] was 0.106 ×10⁻⁶ cm/s.
With `O=C(O)c1cn(C2CC2)c2c(Cl)c(N3CCN(Cn4nc(-c5ccccc5O)n(-c5cc(Cl)cc(Cl)c5)c4=S)CC3)c(F)cc2c1=O`, the concentration for a half-maximal effect (EC50) – broadly, the midpoint of the concentration-response curve – at 72 h in data set [7] was 50.5 µM.
In the data set with Staphylococcus aureus [8], `CCNCC1CCN(c2c(F)cc3c(=O)c(C(=O)O)c4scc5n4c3c2NC5)C1` (stereo unspecified) registered an MIC of 0.05 µg/mL (≈ 0.12 µM).
In the case of `O=C(O)c1cn(C2CC2)c2c(c1=O)C=C(F)C1N=NC(c3ccc(F)cc3)=CN21` (stereo unspecified), the MIC in the data set on Staphylococcus aureus [9] is 0.25 µg/mL. Moreover, in the data set on Staphylococcus aureus [10], the Ratio was determined as 32.
For `O=C(O)c1cn(C2CC2)c2cc(N3CCN(C/C(=N/O)c4ccco4)CC3)c(F)cc2c1=O`, the Ratio in the data set on Staphylococcus aureus [11] came out at 2; with Staphylococcus aureus [12], 2; in the data set on Staphylococcus aureus [13], 4; in the data set on Staphylococcus aureus [16] it was 4. In addition, the MIC in the data set with Staphylococcus aureus [14] and with Staphylococcus aureus [15] was 0.19 µg/mL (≈ 0.418 µM) in each case.
As to `NO/N=C(/CN1CCN(c2cc3c(cc2F)c(=O)c(C(=O)O)cn3C2CC2)CC1)c1cccs1`, the Ratio is recorded as 2 in the data set with Staphylococcus aureus [11], 2 with Staphylococcus aureus [12], 4 with Staphylococcus aureus [13] and 4 in the data set with Staphylococcus aureus [16]. For the same compound, the MIC in the data set with Staphylococcus aureus [14] and in the data set on Staphylococcus aureus [15] was 0.19 µg/mL (≈ 0.391 µM) throughout.
Turning to `CO/N=C1\CCN(c2nc3c(cc2F)c(=O)c(C(=O)O)cn3C2CC2)CC1(C)CN` (stereo unspecified), in the data set with Staphylococcus aureus [17], it took 8 µg/mL to inhibit growth (MIC). In addition, half-maximal cytotoxicity in data set [18] (CC50) was put at 177 µg/mL (≈ 423 µM).
Regarding `C[C@H]1COc2c(N3CCN(C)CC3)c(F)cc3c(=O)c(C(=O)O)cn1c23.C[C@H]1COc2c(N3CCN(C)CC3)c(F)cc3c(=O)c(C(=O)O)cn1c23.O` [LEVOFLOXACIN], the MIC is 0.5 µg/mL against Staphylococcus aureus [19]; 32 µg/mL in the data set on Staphylococcus aureus [20]; 0.06 µg/mL against Staphylococcus aureus [21]; 16 µg/mL against Staphylococcus aureus [17]; 1.56 µg/mL in the data set on Staphylococcus aureus [8].
For the compound `O=C(O)c1cn(C2CC2)c2c(Cl)c(N3CCN(Cn4nc(-c5ccccc5O)n(Cc5ccc(F)cc5)c4=S)CC3)c(F)cc2c1=O`, in data set [7], the EC50 at 72 h is 50.5 µM.
For `COc1c(N2CC[C@@H](C3(C)CC3)C2)c(F)cc2c(=O)c(C(=O)O)cn([C@@H]3C[C@@H]3F)c12`, the Activity with Staphylococcus aureus [22] and with Staphylococcus aureus [23] was 90% throughout.
Turning to `CCn1cc(C(=O)O)c(=O)c2cc(F)c(N3CCNCC3)cc21` [NORFLOXACIN], the MIC was 8 µg/mL (≈ 25.1 µM) against Staphylococcus aureus [24], less than 0.016 µg/mL in the data set on Staphylococcus aureus [9], 0.78 µg/mL (≈ 2.44 µM) in the data set with Staphylococcus aureus [14] and 0.78 µg/mL (≈ 2.44 µM) with Staphylococcus aureus [15]. Further, in the data set on Staphylococcus aureus [25], the MBC (usually the smallest concentration meeting the test's criterion for killing) was determined as 4 µg/mL.
Turning to `C[C@@H](O)[C@H]1C(=O)N2C(C(=O)O)=C(COC(=O)N[C@H]3CCC(c4c(F)cc5c(=O)c(C(=O)O)cn(C6CC6)c5c4F)C3)S[C@H]12` (stereo partly specified), the MIC against Staphylococcus aureus [26] was no more than 0.06 µg/mL; against Staphylococcus aureus [27], 4 µg/mL (≈ 6.46 µM).
With `CC1CN(c2c(F)cc3c(=O)c(C(=O)O)c4scc5n4c3c2N(C)C5)CCN1C` (stereo unspecified), in the data set on Staphylococcus aureus [8], the MIC was 0.05 µg/mL (≈ 0.12 µM).
Compound `CCn1cc(C(=O)O)c(=O)c2cc(F)c(N3CCN(C/C(=N/O)c4ccc(OC)cc4)CC3)c(F)c21` returned an MIC against Staphylococcus aureus [17] of 0.2 µM. Moreover, the Ratio in the data set on Staphylococcus aureus [28] was determined as 24.
Consider `O=C(O)c1cn(CC(O)Cn2cncn2)c2cc(C(F)(F)F)ccc2c1=O` (stereo unspecified), for which 1 µg/mL (≈ 2.62 µM) was the least that counted as inhibitory against Staphylococcus aureus [24] (MIC). Further, the Ratio in the data set with Staphylococcus aureus [28] turned out to be 8.
`COC(=O)c1cn(C2CC2)c2cc(N3CCNCC3)ccc2c1=O`: in the data set on Staphylococcus aureus [5], the Activity is 80%. The Papp in [6] is 0.00797 ×10⁻⁶ cm/s.
